Calls of active or inactive are those of the source. The calls are words filed in the database; no cut-off is given here.
Legend:
NCI-H460 [1] = test: Downregulation of c-MYC protein expression level in human NCI-H460 cells at 1 uM for 24 hrs by […] analysis; type: functional, cell-based
A549 [2] = test: Induction of cell cycle arrest in human A549 cells assessed as accumulation of cells at G0/G1 phase at 0.5 uM for 24 hrs by Click-iT EdU Alexa Fluor 647 flow cytometric assay kit analysis (reference value: 61%); type: functional
A549 [3] = test: Induction of cell cycle arrest in human A549 cells assessed as accumulation of cells at S phase at 0.5 uM for 24 hrs by Click-iT EdU Alexa Fluor 647 flow cytometric assay kit analysis (reference value: 35%); type: functional
DV-90 [4] = test: Induction of apoptosis in human DV-90 cells assessed as necrotic cells at 0.5 uM for 24 hrs by annexin V-PI staining based flow cytometric analysis (reference value: 5.4%); type: functional
DV-90 [5] = test: Downregulation of XIAP protein expression level in human DV-90 cells at 1 uM for 24 hrs by […] analysis; type: functional, cell-based
NCI-H1373 [6] = test: Induction of TRAIL dependent apoptosis in human NCI-H1373 cells assessed as early apoptotic cells at 1 uM by annexin V-PI staining based flow cytometric analysis (reference value: 0.5%); type: functional
A549 [7] = test: Downregulation of c-MYC mRNA expression level in human A549 cells at 0.1 to 1 uM for 24 hrs by qRT-PCR analysis; type: functional, cell-based; conditions: dose 0.1-1 µM
DV-90 [8] = test: Induction of cell cycle arrest in human DV-90 cells assessed as accumulation of cells at G2/M phase at 1 uM for 24 hrs by Click-iT EdU Alexa Fluor 647 flow cytometric assay kit analysis (reference value: 24%); type: functional
SK-LU-1 [9] = test: Downregulation of c-MYC mRNA expression level in human SK-LU-1 cells at 0.1 to 1 uM for 24 hrs by qRT-PCR analysis; type: functional, cell-based; conditions: dose 0.1-1 µM
NCI-H1792 = test: Downregulation of c-MYC protein expression level in human NCI-H1792 cells at 1 uM for 24 hrs by […] analysis; type: functional, cell-based
NCI-H460 [10] = test: Induction of apoptosis in human NCI-H460 cells assessed as necrotic cells at 2.5 uM for 24 hrs by annexin V-PI staining based flow cytometric analysis (reference value: 2.7%); type: functional
NCI-H1373 [11] = test: Induction of TRAIL dependent apoptosis in human NCI-H1373 cells assessed as viable cells at 1 uM by annexin V-PI staining based flow cytometric analysis (reference value: 87.6%); type: functional; conditions: read-out: Activity
SK-LU-1 [12] = test: Downregulation of c-MYC protein expression level in human SK-LU-1 cells at 1 uM for 24 hrs by […] analysis; type: functional, cell-based
NCI-H1373 [13] = test: Induction of apoptosis in human NCI-H1373 cells assessed as late apoptotic cells at 2.5 uM for 24 hrs by annexin V-PI staining based flow cytometric analysis (reference value: 16.2%); type: functional
LCLC-97TM1 = test: Downregulation of c-MYC protein expression level in human LCLC-97TM1 cells at 1 uM for 24 hrs by […] analysis; type: functional, cell-based
A549 [14] = test: Induction of apoptosis in human A549 cells assessed as late apoptotic cells at 2.5 uM for 24 hrs by annexin V-PI staining based flow cytometric analysis (reference value: 2.3%); type: functional
NCI-H358 [15] = test: Downregulation of c-MYC protein expression level in human NCI-H358 cells at 1 uM for 24 hrs by […] analysis; type: functional, cell-based
NCI-H358 [16] = test: Downregulation of c-MYC mRNA expression level in human NCI-H358 cells at 0.1 to 1 uM for 24 hrs by qRT-PCR analysis; type: functional, cell-based; conditions: dose 0.1-1 µM
DV-90 [17] = test: Downregulation of FLIP mRNA expression level in human DV-90 cells at 0.1 to 1 uM for 24 hrs by qRT-PCR analysis; type: functional, cell-based; conditions: dose 0.1-1 µM
NCI-H1373 [18] = test: Induction of cell cycle arrest in human NCI-H1373 cells assessed as accumulation of cells at G0/G1 phase at 1 uM for 24 hrs by Click-iT EdU Alexa Fluor 647 flow cytometric assay kit analysis (reference value: 48%); type: functional
NCI-H1373 [19] = test: Induction of cell cycle arrest in human NCI-H1373 cells assessed as accumulation of cells at G0/G1 phase at 0.25 uM for 24 hrs by Click-iT EdU Alexa Fluor 647 flow cytometric assay kit analysis (reference value: 45%); type: functional
DV-90 [20] = test: Induction of cell cycle arrest in human DV-90 cells assessed as accumulation of cells at S phase at 0.1 uM for 24 hrs by Click-iT EdU Alexa Fluor 647 flow cytometric assay kit analysis (reference value: 30%); type: functional
DV-90 [21] = test: Induction of cell cycle arrest in human DV-90 cells assessed as accumulation of cells at G0/G1 phase at 0.1 uM for 24 hrs by Click-iT EdU Alexa Fluor 647 flow cytometric assay kit analysis (reference value: 45%); type: functional
DV-90 [22] = test: Induction of cell cycle arrest in human DV-90 cells assessed as accumulation of cells at S phase at 0.25 uM for 24 hrs by Click-iT EdU Alexa Fluor 647 flow cytometric assay kit analysis (reference value: 30%); type: functional
NCI-H460 [23] = test: Induction of cell cycle arrest in human NCI-H460 cells assessed as accumulation of cells at S phase at 0.1 uM for 24 hrs by Click-iT EdU Alexa Fluor 647 flow cytometric assay kit analysis (reference value: 54%); type: functional
DV-90 [24] = test: Induction of cell cycle arrest in human DV-90 cells assessed as accumulation of cells at G2/M phase at 0.5 uM for 24 hrs by Click-iT EdU Alexa Fluor 647 flow cytometric assay kit analysis (reference value: 21%); type: functional
A549 [25] = test: Induction of apoptosis in human A549 cells assessed as viable cells at 2.5 uM for 24 hrs by annexin V-PI staining based flow cytometric analysis (reference value: 97.7%); type: functional; conditions: read-out: Activity
DV-90 [26] = test: Induction of cell cycle arrest in human DV-90 cells assessed as accumulation of cells at G2/M phase at 1 uM for 24 hrs by Click-iT EdU Alexa Fluor 647 flow cytometric assay kit analysis (reference value: 21%); type: functional
NCI-H1373 [27] = test: Induction of apoptosis in human NCI-H1373 cells assessed as viable cells at 2.5 uM for 24 hrs by annexin V-PI staining based flow cytometric analysis (reference value: 71.6%); type: functional; conditions: read-out: Activity
NCI-H1373 [28] = test: Induction of apoptosis in human NCI-H1373 cells assessed as viable cells at 0.5 uM for 24 hrs by annexin V-PI staining based flow cytometric analysis (reference value: 71.6%); type: functional; conditions: read-out: Activity
A549 [29] = test: Induction of apoptosis in human A549 cells assessed as viable cells at 0.5 uM for 24 hrs by annexin V-PI staining based flow cytometric analysis (reference value: 97.7%); type: functional; conditions: read-out: Activity
NCI-H1373 [30] = test: Induction of apoptosis in human NCI-H1373 cells assessed as necrotic cells at 2.5 uM for 24 hrs by annexin V-PI staining based flow cytometric analysis (reference value: 4.4%); type: functional
DV-90 [31] = test: Induction of apoptosis in human DV-90 cells assessed as necrotic cells at 2.5 uM for 24 hrs by annexin V-PI staining based flow cytometric analysis (reference value: 8.4%); type: functional

SMILES: Cc1sc2c(c1C)C(c1ccc(Cl)cc1)=N[C@@H](CC(=O)OC(C)(C)C)c1nnc(C)n1-2
- Activity (NCI-H460 [1]): Active
- Activity (A549 [2]): 63%
- Activity (A549 [3]): 33%
- Activity (DV-90 [4]): 25.4%
- Activity (DV-90 [5]): Active
- Activity (NCI-H1373 [6]): 2.4%
- Activity (A549 [7]): Active
- Activity (DV-90 [8]): 27%
- Activity (SK-LU-1 [9]): Active
- Activity (NCI-H1792): Active
- Activity (NCI-H460 [10]): 3.7%
- viability at 1 µM (NCI-H1373 [11]): 64.4%
- Activity (SK-LU-1 [12]): Active
- Activity (NCI-H1373 [13]): 21.9%
- Activity (LCLC-97TM1): Active
- Activity (A549 [14]): 1.8%
- Activity (NCI-H358 [15]): Active
- Activity (NCI-H358 [16]): Active
- Activity (DV-90 [17]): Active

SMILES: CCNC(=O)C[C@@H]1N=C(c2ccc(Cl)cc2)c2cc(OC)ccc2-n2c(C)nnc21 [MOLIBRESIB]
- Activity (NCI-H1373 [18]): 76%
- Activity (NCI-H1373 [19]): 49%
- Activity (DV-90 [20]): 27%
- Activity (DV-90 [21]): 46%
- Activity (DV-90 [22]): 22%
- Activity (NCI-H460 [23]): 53%

SMILES: Cc1sc2c(c1C)C(c1ccc(Cl)cc1)=N[C@@H](CC(=O)Nc1ccc(O)cc1)c1nnc(C)n1-2 [BIRABRESIB]
- Activity (DV-90 [24]): 25%
- viability at 2.5 µM (A549 [25]): 97.3%
- Activity (DV-90 [26]): 22%
- viability at 2.5 µM (NCI-H1373 [27]): 56.2%
- viability at 0.5 µM (NCI-H1373 [28]): 67.4%
- viability at 0.5 µM (A549 [29]): 98.1%
- Activity (NCI-H1373 [30]): 21.4%
- Activity (DV-90 [31]): 33.7%

— ChEMBL document CHEMBL5712891, “Inhibition of BET bromodomain-dependent XIAP and FLIP expression sensitizes KRAS-mutated NSCLC to pro-apoptotic agents” (Cell Death Dis, 2016)
